The text below walks through data of ChEMBL document CHEMBL5233248, “Resveratrol - A comprehensive review of recent advances in anticancer drug design and development” (Eur J Med Chem, 2020).

Structures are written as SMILES.

The nature of series [1]: Cytotoxicity against human MCF-10A cells assessed as cell growth inhibition incubated for 24 hrs by MTT assay. Format: toxicity, cell-based. Background: Formazan colour is commonly taken as a measure of viable cells.
A short description of series [2]: Selectivity ratio of IC50 for human MDA-MB-231 cells to IC50 for human MCF7 cells.
A short description of series [3]: Selectivity ratio of IC50 for human MCF7 cells to IC50 for human MDA-MB-231 cells. In kind it is toxicity.
A further series has as its system MCF7. The experiment in a line: Anticancer activity against human MCF7 cells assessed as cell growth inhibition incubated for 24 hrs by MTT assay. Format: functional, cell-based. To be noted: MCF7, 24 h.
For another series, the system named is MDA-MB-231. Put plainly: Anticancer activity against human MDA-MB-231 cells assessed as cell growth inhibition incubated for 24 hrs by MTT assay. In kind it is functional, cell-based. To be noted: MDA-MB-231, 24 h.
The subject of series [4] is A549. The experiment in a line: Anticancer activity against human A549 cells assessed as cell growth inhibition measured after 72 hrs by MTT assay. Format: functional, cell-based. To be noted: Homo sapiens, A549, 72 h.
Series [5] has as its system A549. The experiment in a line: Potency index, ratio of test compound IC50 to Resveratrol IC50 for antiproliferative activity against human A549 cells. Format: functional.
A short description of series [6]: Anticancer activity against Lung adenocarcinoma cell line assessed as cell growth inhibition measured after 72 hrs by MTT assay. In kind it is functional, cell-based. To be noted: Lung adenocarcinoma cell line, 72 h.
For series [7], the system named is HeLa. The experiment in a line: Anticancer activity against human HeLa cells assessed as cell growth inhibition measured after 72 hrs by MTT assay. In kind it is functional, cell-based. To be noted: Homo sapiens, HeLa, 72 h; read-out: IC50.
For a further series, the system named is HepG2. Put plainly: Anticancer activity against human HepG2 cells. Format: functional, cell-based.
Series [8] has as its system A549. The experiment in a line: Anticancer activity against human A549 cells. Format: functional, cell-based.
The subject of series [9] is HeLa. Put plainly: Anticancer activity against human HeLa cells. Format: functional, cell-based.

On to `Oc1ccc(-c2ccc3cc(O)ccc3c2)c(O)c1`, for which the IC50 (in general, the concentration that inhibits the measured activity by half) at 24 h in series [1] is > 100 µM. The “Ratio IC50” value in series [2] was 1.9; in series [3], 3.3. In addition, the IC50 in the series with MCF7 is 26.3 µM; with MDA-MB-231, 48.2 µM.

On to `O=S(=O)(Oc1cc(O)cc(/C=C/c2ccc(O)cc2)c1)c1ccccc1`, for which the values for the IC50 (in the series on A549 [4]; in series [6]; with HeLa [7]) were 4.38 µM, 10.2 µM and 8.16 µM, respectively. In addition, the “Ratio IC50” value in the series with A549 [5] is 15.

With `COc1ccc(/C(=C/c2cc(C(F)(F)F)ccc2Cl)C(=O)O)cc1`, the IC50 was 7.49 µM in the series with HepG2, 3.77 µM in the series with A549 [8] and 4.79 µM in the series with HeLa [9].
